In PMC11960782 (Nanoscale Advances, 2025):
Residues, ends and D or L forms follow the SMILES beside them.

What was measured:
[1] = mouse, in vivo

## CCCCCCCCCCCCCCCC(=O)N[C@H](C(=O)N[C@H](C(=O)N[C@H](C(=O)N[C@@H](C)C(=O)N[C@@H](C)C(=O)N[C@@H](C)C(=O)N[C@@H](CCCCN)C(=O)N[C@@H](CCCCN)C(=O)N[C@@H](CCCCN)C(=O)NCC(=O)NCC(=O)NCC(=O)NCC(=O)N[C@@H](CO)C(=O)N[C@@H](CC(C)C)C(=O)N[C@@H](CC(C)C)C(=O)N[C@H](C(=O)N[C@@H](CCC(=O)O)C(=O)N[C@H](C(=O)N[C@@H](CCC(=O)O)C(=O)N[C@H](C(=O)N1CCC[C@H]1C(=O)N[C@H](C(=O)N[C@@H](CCCNC(=N)N)C(=O)N[C@@H](CC(N)=O)C(=O)N[C@@H](CCC(=O)O)C(=O)N[C@@H](Cc1c[nH]c2ccccc12)C(=O)NCC(=O)N[C@@H](CO)C(=O)N[C@@H](CCCNC(=N)N)C(=O)N[C@@H](CO)C(=O)N[C@@H](CC(N)=O)C(=O)NCC(=O)N[C@@H](CO)C(=O)N[C@@H](CO)C(=O)N[C@@H](CC(=O)O)C(=O)O)[C@@H](C)CC)[C@@H](C)O)C(C)C)[C@@H](C)O)C(C)C)C(C)C)C(C)C [PA–M2e] (HELM PEPTIDE1{[CCCCCCCCCCCCCCCC(=O)[*:2]].V.V.V.A.A.A.K.K.K.G.G.G.G.S.L.L.T.E.V.E.T.P.I.R.N.E.W.G.S.R.S.N.G.S.S.D}$$$$V2.0)
DC2.4 cells
  cell viability (metabolic activity, resazurin reduction): did not significantly decrease cell viability
  live–dead cell assay by confocal microscopy: confirmed the biocompatibility
[1]
  weight loss upon immunization: none of the mice experienced weight loss
